Data: PMC7031696 (Cell chemical biology, 2019)
Where two headings read alike, the source gives them in different places.

Key:
[1] = system: 3D7-MR4 trophozoite parasite-infected RBCs; assay: Metabolomic profiling (hydrophilic metabolite changes, UHPLC-MS); assay type: cell-based, Plasmodium falciparum
[2] = system: Plasmodium falciparum 3D7-A10 parasites; assay: Stage specificity assay (8-h exposure of synchronized stages, IC50^8h); assay type: cell-based; conditions: for IC50: Plasmodium falciparum
[3] = system: asynchronous 3D7-A10 parasite cultures; assay: Standard 72-h exposure asexual blood stage susceptibility assay (IC50^72h); assay type: cell-based, Plasmodium falciparum; conditions: Plasmodium falciparum, 3D7, 72 h, read-out: Overall (72hr assay) Mean IC50 (IC50^72h)
[4] = system: 3D7-A10 or Dd2-B2 parasites; assay: Resistance selections (single step, pulsing or ramping); assay type: cell-based, Plasmodium falciparum
[5] = system: synchronized Plasmodium falciparum parasites; assay: Microscopical study of cell morphology after 8-h exposures (Figure S4); assay type: cell-based; conditions: 3× the IC50^8h of the most sensitive life stage, 8-h intervals
[6] = 10 × IC50^72h, 2.5 hr, trophozoites

CC(C)(C)OC(=O)N1CCN(c2ccccc2NC(=O)c2cccc(C(F)(F)F)c2Oc2ccc(F)cc2)CC1 [MMV030666]
metabolic signature: increases in the pyrimidine precursors dihydroorotate and N-carbamoyl-L-aspartate (mETC disruption) [1, 6]: observed
orotidine 5-P levels [1, 6]: decreased
peptide levels (hemoglobin catabolism signature) [1, 6]: decreased peptide levels
Log2(fold changes) 3-phosphoglycerate ([1]; metabolite 3-phosphoglycerate, log2 fold change): 0.0028
Log2(fold changes) 4-Pyridoxic acid ([1]; metabolite 4-Pyridoxic acid, log2 fold change): -0.4279
Log2(fold changes) 4-aminobutyrate ([1]; metabolite 4-aminobutyrate, log2 fold change): -0.0634
Log2(fold changes) 4-phosphopantetheine ([1]; metabolite 4-phosphopantetheine, log2 fold change): -0.3320
Log2(fold changes) 4-phosphopantothenate ([1]; metabolite 4-phosphopantothenate, log2 fold change): -1.0807
Log2(fold changes) 5-aminopentanoic acid ([1]; metabolite 5-aminopentanoic acid, log2 fold change): 0.0000
Log2(fold changes) 5-methyl-THF ([1]; metabolite 5-methyl-THF, log2 fold change): 0.0000
Log2(fold changes) 5-phosphoribosyl-1-pyrophosphate ([1]; metabolite 5-phosphoribosyl-1-pyrophosphate, log2 fold change): -0.6917
Log2(fold changes) 6-phospho-D-gluconate ([1]; metabolite 6-phospho-D-gluconate, log2 fold change): -0.3165
Log2(fold change) HVDD ([1]; metabolite HVDD): -4.9061
Log2(fold change) Hydroxyisocaproic acid ([1]; metabolite Hydroxyisocaproic acid): 0.0000
Log2(fold change) IDP ([1]; metabolite IDP): 0.0000
Log2(fold change) IMP ([1]; metabolite IMP): 0.0932
Log2(fold change) Inositol ([1]; metabolite Inositol): 0.0000
Log2(fold change) Isopentyl-PP ([1]; metabolite Isopentyl-PP): 0.0000
Log2(fold change) L-arginino-succinate ([1]; metabolite L-arginino-succinate): -1.0911
Log2(fold change) LD ([1]; metabolite LD): -0.6358
Log2(fold change) Myristoyl/tetradecanoyl-CoA ([1]; metabolite Myristoyl/tetradecanoyl-CoA): 0.0000
Log2(fold change) N-Acetyl-L-alanine ([1]; metabolite N-Acetyl-L-alanine): -0.5215
Log2(fold change) N-acetyl-L-ornithine ([1]; metabolite N-acetyl-L-ornithine): 0.0000
Log2(fold change) N-acetyl-glucosamine-1/6-phosphate ([1]; metabolite N-acetyl-glucosamine-1/6-phosphate): -0.1279
Log2(fold change) N-acetyl-glutamate ([1]; metabolite N-acetyl-glutamate): 0.2373
Log2(fold change) N-acetyl-glutamine ([1]; metabolite N-acetyl-glutamine): -0.0526
Log2(fold change) N-carbamoyl-L-aspartate ([1]; metabolite N-carbamoyl-L-aspartate): 1.9816
Log2(fold change) NAD+ ([1]; metabolite NAD+): -0.1975
Log2(fold change) NADH ([1]; metabolite NADH): 1.6901
Log2(fold change) NADP+ ([1]; metabolite NADP+): -0.2280
Log2(fold change) NADPH ([1]; metabolite NADPH): 1.2462
Log2(fold change) O-acetyl-L-serine ([1]; metabolite O-acetyl-L-serine): 0.0000
Log2(fold change) Octoluse 8/1P ([1]; metabolite Octoluse 8/1P): 0.2225
Log2(fold change) Octoluse Bisphosphate ([1]; metabolite Octoluse Bisphosphate): -1.0839
Log2(fold change) PD ([1]; metabolite PD): -3.4872
Log2(fold change) PE ([1]; metabolite PE): -3.3751
Log2(fold change) PEE ([1]; metabolite PEE): -2.7815
Log2(fold change) PEEK ([1]; metabolite PEEK): -2.6677
Log2(fold change) PVNF ([1]; metabolite PVNF): -4.4222
Log2(fold change) Pyroglutamic acid ([1]; metabolite Pyroglutamic acid): 0.3360
Log2(fold change) Pyrophosphate ([1]; metabolite Pyrophosphate): 0.0000
Log2(fold change) Ribose-5-phosphate ([1]; metabolite Ribose-5-phosphate): -0.7810
Log2(fold change) S-adenosyl-L-homocysteine ([1]; metabolite S-adenosyl-L-homocysteine): 0.2136
Log2(fold change) S-adenosyl-L-methioninamine ([1]; metabolite S-adenosyl-L-methioninamine): 0.0000
Log2(fold change) S-adenosyl-L-methionine ([1]; metabolite S-adenosyl-L-methionine): 0.0000
Log2(fold change) S-methyl-5'-thioadenosine ([1]; metabolite S-methyl-5'-thioadenosine): 0.3369
Log2(fold change) SD ([1]; metabolite SD): -2.5205
Log2(fold change) SDL ([1]; metabolite SDL): -4.4795
Log2(fold change) SID ([1]; metabolite SID): 0.0000
Log2(fold change) Sedoheptulose bisphosphate ([1]; metabolite Sedoheptulose bisphosphate): -0.5250
Log2(fold change) Thiamine pyrophosphate ([1]; metabolite Thiamine pyrophosphate): -0.1162
Log2(fold changes) UDP-D-glucose ([1]; metabolite UDP-D-glucose, log2 fold change): -0.1835
Log2(fold changes) UDP-D-glucuronate ([1]; metabolite UDP-D-glucuronate, log2 fold change): -0.4871
Log2(fold changes) UDP-N-acetyl-glucosamine ([1]; metabolite UDP-N-acetyl-glucosamine, log2 fold change): -0.5093
Log2(fold changes) UDP ([1]; metabolite UDP, log2 fold change): -1.4928
Log2(fold changes) UMP ([1]; metabolite UMP, log2 fold change): -0.5598
Log2(fold changes) UTP ([1]; metabolite UTP, log2 fold change): -1.9407
Log2(fold change) hydroxyphenylpyruvate ([1]; metabolite hydroxyphenylpyruvate): 0.0000
Log2(fold change) hydroxyproline/Aminolevulinate ([1]; metabolite hydroxyproline/Aminolevulinate): -0.0744
Log2(fold change) hypoxanthine ([1]; metabolite hypoxanthine): 0.1169
Log2(fold change) indole ([1]; metabolite indole): 0.3440
Log2(fold change) inosine ([1]; metabolite inosine): -0.2932
Log2(fold change) isoleucine ([1]; metabolite isoleucine): -0.1542
Log2(fold change) lactate ([1]; metabolite lactate): -0.3562
Log2(fold change) leucine ([1]; metabolite leucine): -0.3099
Log2(fold change) lysine ([1]; metabolite lysine): 0.0000
Log2(fold change) malate ([1]; metabolite malate): -1.0993
Log2(fold change) maleic acid ([1]; metabolite maleic acid): -0.3336
Log2(fold change) methionine ([1]; metabolite methionine): -0.1260
Log2(fold change) myo-inositol ([1]; metabolite myo-inositol): 0.0000
Log2(fold change) nicotinamide mononucleotide ([1]; metabolite nicotinamide mononucleotide): 0.0000
Log2(fold change) nicotinate ([1]; metabolite nicotinate): -0.1069
Log2(fold change) ornithine ([1]; metabolite ornithine): 0.0000
Log2(fold change) orotate ([1]; metabolite orotate): -0.1643
Log2(fold change) orotidine-5'-phosphate ([1]; metabolite orotidine-5'-phosphate): -1.8500
Log2(fold change) oxaloacetate ([1]; metabolite oxaloacetate): 0.0000
Log2(fold change) p-aminobenzoate ([1]; metabolite p-aminobenzoate): 0.0000
Log2(fold change) p-hydroxybenzoate ([1]; metabolite p-hydroxybenzoate): 0.0000
Log2(fold change) pantothenate ([1]; metabolite pantothenate): -0.0587
Log2(fold change) phenylalanine ([1]; metabolite phenylalanine): -0.5281
Log2(fold change) phenylpyruvate ([1]; metabolite phenylpyruvate): 0.0000
Log2(fold change) phosphoenolpyruvate ([1]; metabolite phosphoenolpyruvate): 0.0797
Log2(fold change) prephenate ([1]; metabolite prephenate): 0.0000
Log2(fold change) proline ([1]; metabolite proline): -0.4182
Log2(fold change) pyridoxine ([1]; metabolite pyridoxine): 0.0000
Log2(fold change) pyruvate ([1]; metabolite pyruvate): -1.3359
Log2(fold change) riboflavin ([1]; metabolite riboflavin): -0.6446
Log2(fold change) ribose ([1]; metabolite ribose): 0.0000
Log2(fold change) ribose-phosphate ([1]; metabolite ribose-phosphate): 0.0000
Log2(fold change) ribulose-5-phosphate ([1]; metabolite ribulose-5-phosphate): -0.3252
Log2(fold change) serine ([1]; metabolite serine): -0.1988
Log2(fold change) sn-glycerol-3-phosphate ([1]; metabolite sn-glycerol-3-phosphate): 0.6292
Log2(fold change) succinate/Methylmalonic acid ([1]; metabolite succinate/Methylmalonic acid): -1.4071
Log2(fold change) succinyl-CoA/methylmalonyl-CoA ([1]; metabolite succinyl-CoA/methylmalonyl-CoA): -0.7249
Log2(fold change) taurine ([1]; metabolite taurine): 0.0000
Log2(fold change) thiamine ([1]; metabolite thiamine): 0.0000
Log2(fold change) threonine/homoserine ([1]; metabolite threonine/homoserine): -0.8029
Log2(fold change) thymidine ([1]; metabolite thymidine): 0.0000
Log2(fold changes) thymine ([1]; metabolite thymine, log2 fold change): 0.0000
Log2(fold changes) trehalose-6-Phosphate ([1]; metabolite trehalose-6-Phosphate, log2 fold change): 0.0000
Log2(fold changes) tryptophan ([1]; metabolite tryptophan, log2 fold change): 0.1993
Log2(fold changes) tyrosine ([1]; metabolite tyrosine, log2 fold change): -0.2219
Log2(fold changes) uridine ([1]; metabolite uridine, log2 fold change): 0.0000
Ratio lowest IC50 8hr/IC50 72hr ([2]; 3D7-A10): 1.9
killing in stage specificity assay ([2]; 8-h exposures, survival curves): incomplete killing
IC50 ([2]; 3D7, read-out: Early rings Mean IC50 (IC50^8h), 8-h exposure 0–8 hr, 3D7-A10, survival at 60 h): 10.3 µM
IC50 ([2]; 3D7, read-out: Early trophozoites Mean IC50 (IC50^8h), 8-h exposure 16–24 hr, 3D7-A10, survival at 60 h): 5.12 µM
IC50 ([2]; 3D7, read-out: Late rings Mean IC50 (IC50^8h), 8-h exposure 8–16 hr, 3D7-A10, survival at 60 h): 11.4 µM
IC50 ([2]; 3D7, read-out: Late trophozoites Mean IC50 (IC50^8h), 8-h exposure 24–32 hr, 3D7-A10, survival at 60 h): 0.858 µM
IC50 ([2]; 3D7, read-out: Schizonts Mean IC50 (IC50^8h), 8-h exposure 32–40 hr, 3D7-A10, survival at 60 h): 4.19 µM
Stage of peak activity (Figure 6) ([2]; period when the parasite was most susceptible (lowest IC50^8h)): late trophozoites
Peak Activity (Table S1) ([2]; stage(s) with the lowest IC50^8h): Late Trophs
IC50 [3]: 0.462 µM
outcome of ramping resistance selection ([4]; 3D7-A10, 1 × to 1.8 × IC50^72h over 3 months): did not produce resistance
outcome of resistance selections (continuous exposure or pulsing) ([4]; 5 × 10^8 to 1 × 10^9 3D7-A10 or Dd2-B2 parasites, 3–6 × IC50^72h): failed to yield resistance
minimum inocula of resistance ([4]; from failed selections in 3D7-A10 / Dd2-B2): above 5 × 10^8 parasites
digestive vacuole morphology [5]: bloated digestive vacuoles
most susceptible stage by cell morphology [5]: late trophozoite stage
